Experimental data from patent publication US12122761B2, “2-azaspiro[3.4]octane derivatives as M4 agonists” (NOVARTIS AG, priority 2019, dated 2024).
One block for each compound: values may come before it.

Experiments:
Format in all cases: cell-based
[1] = molecular target: T1, human cloned CHRM2 receptor (M2_CHO cells) (Homo sapiens, UniProt P08172); assay: CHRM2 Ca++ Flux Assay (agonist mode, FDSS 7000EX); settings: for M2 FDSS PA: Percent Activity measured to EC100 of Carbachol; for EC50: agonist mode, geometric mean if tested more than once, read-out: M2 FDSS EC50
T1 construct: expressed in transfected cells; host or cells: CHO-K1
T1 sequence (P08172 1-466): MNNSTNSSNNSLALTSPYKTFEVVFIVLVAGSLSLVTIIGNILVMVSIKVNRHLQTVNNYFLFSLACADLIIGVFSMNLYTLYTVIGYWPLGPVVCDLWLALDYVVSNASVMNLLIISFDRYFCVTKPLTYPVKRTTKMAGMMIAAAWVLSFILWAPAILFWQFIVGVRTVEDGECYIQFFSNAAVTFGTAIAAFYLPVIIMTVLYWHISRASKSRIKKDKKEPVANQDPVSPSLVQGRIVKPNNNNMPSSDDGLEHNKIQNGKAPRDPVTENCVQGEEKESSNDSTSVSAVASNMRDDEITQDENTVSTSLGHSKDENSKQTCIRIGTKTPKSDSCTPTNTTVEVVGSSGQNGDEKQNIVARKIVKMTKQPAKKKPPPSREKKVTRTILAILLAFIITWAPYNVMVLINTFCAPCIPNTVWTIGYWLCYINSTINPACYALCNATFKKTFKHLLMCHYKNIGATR
Procedure, shortened: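 Response expressed as percent activity versus the Carbachol EC100, with curves fitted by four-parameter non-linear regression of triplicates. Stable M2_CHO cells were Ca++ dye-loaded and preincubated 60 min at room temperature in assay buffer containing 20 μM ATP; signal imaged for 3 minutes after compound.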

[2] = molecular target: T2, human cloned CHRM5 receptor (M5_CHO) (Homo sapiens, UniProt P08912); assay: CHRM5 Ca++ Flux Assay (agonist mode, FDSS 7000EX); settings: for M5 FDSS PA: Percent Activity measured to EC100 of Carbachol; for EC50: agonist mode, geometric mean if tested more than once, read-out: M5 FDSS EC50
T2 construct: expressed in transfected cells; host or cells: CHO (M5_CHO)
T2 sequence (P08912 1-532): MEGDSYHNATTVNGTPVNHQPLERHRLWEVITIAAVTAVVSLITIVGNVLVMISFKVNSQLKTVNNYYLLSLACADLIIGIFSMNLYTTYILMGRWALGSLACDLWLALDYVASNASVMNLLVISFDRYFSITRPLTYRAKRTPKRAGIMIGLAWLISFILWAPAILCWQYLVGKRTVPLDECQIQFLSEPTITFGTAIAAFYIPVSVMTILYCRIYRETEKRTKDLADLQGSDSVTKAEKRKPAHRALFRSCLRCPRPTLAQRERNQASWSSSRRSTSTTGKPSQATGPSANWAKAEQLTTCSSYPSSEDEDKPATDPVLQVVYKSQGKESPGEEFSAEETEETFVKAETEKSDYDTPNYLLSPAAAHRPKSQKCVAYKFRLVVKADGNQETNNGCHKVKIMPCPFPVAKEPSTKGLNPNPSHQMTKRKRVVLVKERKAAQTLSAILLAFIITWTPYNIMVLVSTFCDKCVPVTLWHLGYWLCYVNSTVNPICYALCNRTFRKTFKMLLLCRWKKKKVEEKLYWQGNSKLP
Procedure, shortened: (§1)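 Agonist-mode calcium flux: 11-point dose responses, triplicate wells, fluorescence followed for 3 minutes. Cells are M3_CHO or M5_CHO lines (human receptors) with Ca++ indicator in probenecid-containing HEPES/HBSS buffer. Percent activity is referenced to carbachol EC100, and curves come from four-parameter nonlinear regression.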

[3] = molecular target: T3, human cloned CHRM3 receptor (M3_CHO cells) (Homo sapiens, UniProt P20309); assay: CHRM3 Ca++ Flux Assay (agonist mode, FDSS 7000EX); settings: for M3 FDSS PA: Percent Activity measured to EC100 of Carbachol; for EC50: agonist mode, geometric mean if tested more than once, read-out: M3 FDSS EC50
T3 construct: expressed in transfected cells; host or cells: CHO-K1
Procedure, shortened: as §1

T3 sequence (P20309 whole entry): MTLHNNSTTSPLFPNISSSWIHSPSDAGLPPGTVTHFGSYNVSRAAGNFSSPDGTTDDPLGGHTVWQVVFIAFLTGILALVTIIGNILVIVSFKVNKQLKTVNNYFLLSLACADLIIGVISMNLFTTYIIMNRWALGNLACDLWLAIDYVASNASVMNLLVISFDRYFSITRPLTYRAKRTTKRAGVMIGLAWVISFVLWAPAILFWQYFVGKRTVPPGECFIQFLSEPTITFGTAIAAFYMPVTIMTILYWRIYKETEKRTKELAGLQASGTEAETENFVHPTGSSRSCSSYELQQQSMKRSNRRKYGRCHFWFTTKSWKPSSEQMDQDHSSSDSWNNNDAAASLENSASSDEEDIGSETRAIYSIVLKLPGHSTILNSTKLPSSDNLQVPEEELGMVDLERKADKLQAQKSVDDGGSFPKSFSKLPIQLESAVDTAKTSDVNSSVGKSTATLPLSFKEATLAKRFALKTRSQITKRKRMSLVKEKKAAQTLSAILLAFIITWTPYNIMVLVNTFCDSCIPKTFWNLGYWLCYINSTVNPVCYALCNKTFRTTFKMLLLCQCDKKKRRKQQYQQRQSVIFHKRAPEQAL

Structure (SMILES): O=C(N1CC2(CC[C@@H](N3CCC(c4ccccc4OC(F)(F)F)CC3)C2)C1)C1(F)CC1 (single isomer, unassigned) [Example 9A, (R)-(1-fluorocyclopropyl)(6-(4-(2-(trifluoromethoxy)phenyl)piperidin-1-yl)-2-azaspiro[3.4]octan-2-yl)methanone or (S)-(1-fluorocyclopropyl)(6-(4-(2-(trifluoromethoxy)phenyl)piperidin-1-yl)-2-azaspiro[3.4]octan-2-yl)methanone]
M2 FDSS PA [1]: 31%
EC50 [1]: 11.8 µM
M5 FDSS PA [2]: 0%
EC50 [2]: > 25 µM
M3 FDSS PA [3]: 0%
EC50 [3]: > 25 µM

Structure (SMILES): O=C(N1CC2(CC[C@@H](N3CCC(c4ccccc4OC(F)(F)F)CC3)C2)C1)C1(F)CC1 (single isomer, unassigned) [Example 9B, (R)-(1-fluorocyclopropyl)(6-(4-(2-(trifluoromethoxy)phenyl)piperidin-1-yl)-2-azaspiro[3.4]octan-2-yl)methanone or (S)-(1-fluorocyclopropyl)(6-(4-(2-(trifluoromethoxy)phenyl)piperidin-1-yl)-2-azaspiro[3.4]octan-2-yl)methanone]
M2 FDSS PA [1]: 0%
M5 FDSS PA [2]: 0%
EC50 [2]: > 25 µM
M3 FDSS PA [3]: 0%
EC50 [3]: > 25 µM

Structure (SMILES): O=C(N1CC2(CC[C@@H](N3CCC(c4ccccc4C4(O)CCOCC4)CC3)C2)C1)C1(F)CC1 (single isomer, unassigned) [Example 9G, (R)-(1-fluorocyclopropyl)(6-(4-(2-(4-hydroxytetrahydro-2H-pyran-4-yl)phenyl)piperidin-1-yl)-2-azaspiro[3.4]octan-2-yl)methanone or (S)-(1-fluorocyclopropyl)(6-(4-(2-(4-hydroxytetrahydro-2H-pyran-4-yl)phenyl)piperidin-1-yl)-2-azaspiro[3.4]octan-2-yl)methanone]
M2 FDSS PA [1]: 0%
M5 FDSS PA [2]: 0%
EC50 [2]: > 25 µM
M3 FDSS PA [3]: 0%
EC50 [3]: > 25 µM

Structure (SMILES): O=C(N1CC2(CC[C@@H](N3CCC(c4ccccc4C4(O)CCOCC4)CC3)C2)C1)C1(F)CC1 (single isomer, unassigned) [Example 9H, (R)-(1-fluorocyclopropyl)(6-(4-(2-(4-hydroxytetrahydro-2H-pyran-4-yl)phenyl)piperidin-1-yl)-2-azaspiro[3.4]octan-2-yl)methanone or (S)-(1-fluorocyclopropyl)(6-(4-(2-(4-hydroxytetrahydro-2H-pyran-4-yl)phenyl)piperidin-1-yl)-2-azaspiro[3.4]octan-2-yl)methanone]
M2 FDSS PA [1]: 0%
M5 FDSS PA [2]: 0%
EC50 [2]: > 25 µM
M3 FDSS PA [3]: 0%
EC50 [3]: > 25 µM

Structure (SMILES): O=C(N1CC2(CC[C@@H](N3CCC(c4cc(F)ccc4C4(O)CCOCC4)CC3)C2)C1)C1(F)CC1 (single isomer, unassigned) [Example 9I, (R)-(6-(4-(5-fluoro-2-(4-hydroxytetrahydro-2H-pyran-4-yl)phenyl)piperidin-1-yl)-2-azaspiro[3.4]octan-2-yl)(1-fluorocyclopropyl)methanone or (S)-(6-(4-(5-fluoro-2-(4-hydroxytetrahydro-2H-pyran-4-yl)phenyl)piperidin-1-yl)-2-azaspiro[3.4]octan-2-yl)(1-fluorocyclopropyl)methanone]
M2 FDSS PA [1]: 0%
M5 FDSS PA [2]: 0%
EC50 [2]: > 25 µM
M3 FDSS PA [3]: 0%
EC50 [3]: > 25 µM

Structure (SMILES): O=C(N1CC2(CC[C@@H](N3CCC(c4cc(F)ccc4C4(O)CCOCC4)CC3)C2)C1)C1(F)CC1 (single isomer, unassigned) [Example 9J, (R)-(6-(4-(5-fluoro-2-(4-hydroxytetrahydro-2H-pyran-4-yl)phenyl)piperidin-1-yl)-2-azaspiro[3.4]octan-2-yl)(1-fluorocyclopropyl)methanone or (S)-(6-(4-(5-fluoro-2-(4-hydroxytetrahydro-2H-pyran-4-yl)phenyl)piperidin-1-yl)-2-azaspiro[3.4]octan-2-yl)(1-fluorocyclopropyl)methanone]
M2 FDSS PA [1]: 0%
M5 FDSS PA [2]: 0%
EC50 [2]: > 25 µM
M3 FDSS PA [3]: 0%
EC50 [3]: > 25 µM

Structure (SMILES): O=C(N1CC2(CC[C@@H](N3CCC(c4cc(F)ccc4C4CCOCC4)CC3)C2)C1)C1(F)CC1 (single isomer, unassigned) [Example 9K, (R)-(6-(4-(5-fluoro-2-(tetrahydro-2H-pyran-4-yl)phenyl)piperidin-1-yl)-2-azaspiro[3.4]octan-2-yl)(1-fluorocyclopropyl)methanone or (S)-(6-(4-(5-fluoro-2-(tetrahydro-2H-pyran-4-yl)phenyl)piperidin-1-yl)-2-azaspiro[3.4]octan-2-yl)(1-fluorocyclopropyl)methanone]
M2 FDSS PA [1]: 0%
M5 FDSS PA [2]: 0%
EC50 [2]: > 25 µM
M3 FDSS PA [3]: −1%
EC50 [3]: > 25 µM

Other lines, results leading:

M2 FDSS PA [1]: 0%
M5 FDSS PA [2]: 0%
EC50 [2]: > 25 µM
M3 FDSS PA [3]: 0%
EC50 [3]: > 25 µM
Structure (SMILES): O=C(N1CC2(CC[C@@H](N3CCC(c4cc(F)ccc4OC4CCOCC4)CC3)C2)C1)C1(F)CC1 (single isomer, unassigned) [Example 9C, (R)-(6-(4-(5-fluoro-2-((tetrahydro-2H-pyran-4-yl)oxy)phenyl)piperidin-1-yl)-2-azaspiro[3.4]octan-2-yl)(1-fluorocyclopropyl)methanone or (S)-(6-(4-(5-fluoro-2-((tetrahydro-2H-pyran-4-yl)oxy)phenyl)piperidin-1-yl)-2-azaspiro[3.4]octan-2-yl)(1-fluorocyclopropyl)methanone]

M2 FDSS PA [1]: 0%
EC50 [1]: < 26 µM
M5 FDSS PA [2]: 0%
EC50 [2]: > 25 µM
M3 FDSS PA [3]: 0%
EC50 [3]: > 25 µM
Structure (SMILES): O=C(N1CC2(CC[C@@H](N3CCC(c4cc(F)ccc4OC4CCOCC4)CC3)C2)C1)C1(F)CC1 (single isomer, unassigned) [Example 9D, (R)-(6-(4-(5-fluoro-2-((tetrahydro-2H-pyran-4-yl)oxy)phenyl)piperidin-1-yl)-2-azaspiro[3.4]octan-2-yl)(1-fluorocyclopropyl)methanone or (S)-(6-(4-(5-fluoro-2-((tetrahydro-2H-pyran-4-yl)oxy)phenyl)piperidin-1-yl)-2-azaspiro[3.4]octan-2-yl)(1-fluorocyclopropyl)methanone]

M2 FDSS PA [1]: 0%
M5 FDSS PA [2]: 0%
EC50 [2]: > 25 µM
M3 FDSS PA [3]: 0%
EC50 [3]: > 25 µM
Structure (SMILES): O=C(N1CC2(CC[C@@H](N3CCC(c4ccccc4OC4CCOCC4)CC3)C2)C1)C1(F)CC1 (single isomer, unassigned) [Example 9E, (R)-(1-fluorocyclopropyl)(6-(4-(2-((tetrahydro-2H-pyran-4-yl)oxy)phenyl)piperidin-1-yl)-2-azaspiro[3.4]octan-2-yl)methanone or (S)-(1-fluorocyclopropyl)(6-(4-(2-((tetrahydro-2H-pyran-4-yl)oxy)phenyl)piperidin-1-yl)-2-azaspiro[3.4]octan-2-yl)methanone]

M2 FDSS PA [1]: 0%
M5 FDSS PA [2]: 0%
EC50 [2]: > 25 µM
M3 FDSS PA [3]: 0%
EC50 [3]: > 25 µM
Structure (SMILES): O=C(N1CC2(CC[C@@H](N3CCC(c4ccccc4OC4CCOCC4)CC3)C2)C1)C1(F)CC1 (single isomer, unassigned) [Example 9F, (R)-(1-fluorocyclopropyl)(6-(4-(2-((tetrahydro-2H-pyran-4-yl)oxy)phenyl)piperidin-1-yl)-2-azaspiro[3.4]octan-2-yl)methanone or (S)-(1-fluorocyclopropyl)(6-(4-(2-((tetrahydro-2H-pyran-4-yl)oxy)phenyl)piperidin-1-yl)-2-azaspiro[3.4]octan-2-yl)methanone]
